Data: US20170087174A1, “COMBINATION THERAPY REGIMEN FOR TREATMENT OF HCV” (JANSSEN PHARMACEUTICALS, INC., priority 2015, published 2017)
“Also recorded” adds a separate entry of the source. Read-outs that look alike come from different tables or passages of the source.

How the values were obtained:
[1] = molecular target: P-gp (Homo sapiens, UniProt P08183); details: in vitro, cited from earlier work
[2] = PK of single agents vs fixed dose combinations (FDC), single oral dose in healthy volunteers; format: in vivo, human; details: for Cmax / AUC(0-t) / AUC(0-inf) / Tmax: human, plasma, oral; for Cmax: read-out: Cmax (mean ± SD); for AUC(0-t): read-out: AUClast (mean ± SD); for AUC(0-inf): read-out: AUC∞ (mean ± SD); for Tmax: read-out: tmax (median [range])
Protocol: SMV (100 mg), ODV (50 mg), and Compound (III) (800 mg) were administered as three different formulations or together as single doses in vivo to healthy volunteers. The arms of the study included: • Arm 1 (Reference Arm): Single oral doses of single agents, one SMV 100-mg capsule, one ODV 50-mg tablet as granule layered solid dispersion with copovidone and poloxamers, and two Compound (III) 400-mg tablets, administered together. • Arm 2: Single oral dose of fixed dose combination (FDC02): SMV 100 mg+ODV 50 mg as a spray dried solid dispersion with HPMC-AS L in a ratio ODV/HPMC-AS L 1/1 w/w+Compound (III) 800 mg • Arm 3: Single oral dose of fixed dose combination (FDC04): SMV 100 mg+ODV 50 mg as a spray dried solid dispersion with HPMC-AS L in a ratio ODV/HPMC-AS L 1/3 w/w+Compound (III) 800 mg • Arm 4: Single oral dose of fixed dose combination (FDC01): SMV 100 mg+ODV 50 mg as a spray dried solid dispersion with copovidone and poloxamers+Compound (III) 800 mg
PK parameters, including Cmax, tmax, AUClast, and AUC∞ were measured for Compound (III), ODV, SMV, and metabolites Compound A-I and Compound A-3 for each Arm of the study. Arms that included fixed dose combinations (FDC) (Arm 2, Arm 3, and Arm 4) were then compared to a single oral dose (Arm 1, the reference Arm). Table 9, Table 10, Table 11, Table 12 and Table 13 display relevant PK parameters and FIG. 9, FIG. 10, FIG. 11, FIG. 12, and FIG. 13 depict the plasma concentration over time of SMV, ODV, Compound A-1, and Compound A-3 for each Arm of the study.

[3] = molecular target: T1, OATP1B1 (Homo sapiens, UniProt Q9Y6L6); details: in vitro, cited from earlier work
T1 sequence (Q9Y6L6 1-691): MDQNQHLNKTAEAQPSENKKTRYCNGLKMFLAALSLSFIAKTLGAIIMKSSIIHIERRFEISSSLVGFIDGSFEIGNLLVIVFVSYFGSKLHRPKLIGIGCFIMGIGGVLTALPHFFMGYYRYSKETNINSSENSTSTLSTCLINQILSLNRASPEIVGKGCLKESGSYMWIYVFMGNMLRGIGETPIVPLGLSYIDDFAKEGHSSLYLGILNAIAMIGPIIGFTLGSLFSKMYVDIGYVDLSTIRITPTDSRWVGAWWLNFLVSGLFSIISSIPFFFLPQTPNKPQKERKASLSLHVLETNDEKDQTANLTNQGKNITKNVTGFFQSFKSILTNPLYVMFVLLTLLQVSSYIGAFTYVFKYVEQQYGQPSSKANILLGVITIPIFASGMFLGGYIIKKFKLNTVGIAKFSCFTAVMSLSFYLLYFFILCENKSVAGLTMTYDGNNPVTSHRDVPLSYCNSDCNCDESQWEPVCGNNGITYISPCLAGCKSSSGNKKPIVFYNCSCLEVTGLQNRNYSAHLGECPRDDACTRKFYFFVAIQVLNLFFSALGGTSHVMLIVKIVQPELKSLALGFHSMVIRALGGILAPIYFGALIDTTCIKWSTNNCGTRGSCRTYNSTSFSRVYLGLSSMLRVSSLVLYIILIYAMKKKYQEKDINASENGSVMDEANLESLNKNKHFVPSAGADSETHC

[4] = test system: CYP (cytochrome P450 enzymes); experiment: CYP inhibition in vitro; details: for CYP inhibition potential (in words): on any CYP
[5] = Phase-1 drug-drug interaction study in healthy volunteers (Compound (III) 800 mg, SMV 150 mg, Odalasvir 150 mg loading then 50 mg, once daily): plasma PK; format: in vivo, human; details: for AUC0-24 / Cmax: human
Description: The following daily doses were employed:

[6] = molecular target: T2, BCRP (Homo sapiens, UniProt Q9UNQ0); details: in vitro; cited from earlier work
T2 sequence (Q9UNQ0 1-655): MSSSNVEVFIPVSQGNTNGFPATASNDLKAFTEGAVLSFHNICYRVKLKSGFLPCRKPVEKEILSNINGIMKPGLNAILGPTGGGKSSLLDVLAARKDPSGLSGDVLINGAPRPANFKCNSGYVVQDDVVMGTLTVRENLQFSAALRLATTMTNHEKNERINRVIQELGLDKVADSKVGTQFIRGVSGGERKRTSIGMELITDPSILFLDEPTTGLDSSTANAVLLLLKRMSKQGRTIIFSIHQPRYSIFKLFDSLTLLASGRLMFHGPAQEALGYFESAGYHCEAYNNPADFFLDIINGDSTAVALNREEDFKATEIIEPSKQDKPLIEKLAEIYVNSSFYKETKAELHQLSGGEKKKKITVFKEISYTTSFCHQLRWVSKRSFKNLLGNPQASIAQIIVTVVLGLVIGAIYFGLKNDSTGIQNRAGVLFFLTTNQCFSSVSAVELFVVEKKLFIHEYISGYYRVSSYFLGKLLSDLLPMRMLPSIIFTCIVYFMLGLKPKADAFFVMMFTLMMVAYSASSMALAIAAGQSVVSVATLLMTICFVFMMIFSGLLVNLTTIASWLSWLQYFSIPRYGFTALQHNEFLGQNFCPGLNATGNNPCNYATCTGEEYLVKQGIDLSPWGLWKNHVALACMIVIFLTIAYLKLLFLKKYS

[7] = Arm 1 (reference): single agents together
[8] = Arm 2 (FDC02) vs reference (Arm 1)
[9] = Arm 3 (FDC04) vs reference (Arm 1)
[10] = Arm 4 (FDC01) vs reference (Arm 1)
[11] = Arm 1 (reference): single agents together, SMV 100-mg capsule, ODV 50-mg tablet, two Compound (III) 400-mg tablets
[12] = Arm 2: FDC02, SMV 100 mg + ODV 50 mg (ODV/HPMC-AS L 1/1 w/w) + Compound (III) 800 mg
[13] = Arm 3: FDC04, SMV 100 mg + ODV 50 mg (ODV/HPMC-AS L 1/3 w/w) + Compound (III) 800 mg
[14] = Arm 4: FDC01, SMV 100 mg + ODV 50 mg (copovidone and poloxamers) + Compound (III) 800 mg

Chain of P-gp (P08183 whole entry): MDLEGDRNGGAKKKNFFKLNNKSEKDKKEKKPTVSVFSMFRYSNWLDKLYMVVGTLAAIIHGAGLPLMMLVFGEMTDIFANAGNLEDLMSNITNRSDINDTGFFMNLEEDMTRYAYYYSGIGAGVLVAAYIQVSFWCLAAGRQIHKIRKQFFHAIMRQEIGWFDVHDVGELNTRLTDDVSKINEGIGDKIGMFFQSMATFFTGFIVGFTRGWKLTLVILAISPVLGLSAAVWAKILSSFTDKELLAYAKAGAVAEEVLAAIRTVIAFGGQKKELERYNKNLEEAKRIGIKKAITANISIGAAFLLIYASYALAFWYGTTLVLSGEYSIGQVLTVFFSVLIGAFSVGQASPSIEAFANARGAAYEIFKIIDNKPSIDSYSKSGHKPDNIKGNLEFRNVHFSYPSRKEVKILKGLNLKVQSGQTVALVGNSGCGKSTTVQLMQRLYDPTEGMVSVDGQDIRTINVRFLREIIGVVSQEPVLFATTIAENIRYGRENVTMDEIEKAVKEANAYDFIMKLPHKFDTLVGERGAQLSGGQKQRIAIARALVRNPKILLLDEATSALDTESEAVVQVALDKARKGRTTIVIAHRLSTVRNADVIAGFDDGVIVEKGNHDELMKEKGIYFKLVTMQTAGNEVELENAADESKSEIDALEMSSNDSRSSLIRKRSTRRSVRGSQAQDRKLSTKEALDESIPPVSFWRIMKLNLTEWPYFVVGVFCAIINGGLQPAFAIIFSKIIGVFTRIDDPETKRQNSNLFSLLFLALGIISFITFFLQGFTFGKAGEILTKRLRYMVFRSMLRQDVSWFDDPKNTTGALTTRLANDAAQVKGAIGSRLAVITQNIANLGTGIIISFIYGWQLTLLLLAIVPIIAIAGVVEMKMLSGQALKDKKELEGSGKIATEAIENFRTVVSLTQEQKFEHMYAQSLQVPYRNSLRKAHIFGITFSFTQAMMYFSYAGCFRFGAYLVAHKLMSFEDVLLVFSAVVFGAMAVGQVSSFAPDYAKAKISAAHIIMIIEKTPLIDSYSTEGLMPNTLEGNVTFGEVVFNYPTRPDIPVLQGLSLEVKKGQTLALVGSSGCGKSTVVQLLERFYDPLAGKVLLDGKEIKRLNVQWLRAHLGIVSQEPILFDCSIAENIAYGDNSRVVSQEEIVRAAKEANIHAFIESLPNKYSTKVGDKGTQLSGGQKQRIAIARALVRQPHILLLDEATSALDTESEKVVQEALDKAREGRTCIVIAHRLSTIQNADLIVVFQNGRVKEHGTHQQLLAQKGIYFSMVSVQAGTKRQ

COC(=O)N[C@H](C(=O)N1[C@H](c2nc3cc(-c4cc5ccc4CCc4ccc(c(-c6ccc7[nH]c([C@@H]8C[C@@H]9CCCC[C@@H]9N8C(=O)[C@@H](NC(=O)OC)C(C)C)nc7c6)c4)CC5)ccc3[nH]2)C[C@@H]2CCCC[C@@H]21)C(C)C [ODV, Odalasvir]
P-gp inhibition (in words) [1]: moderate inhibition | IC50 ([1]; read-out: Pgp inhibition IC50): 9.5 µM | t1/2term (mean ± SD) [2, 7]: 168.6 ± 21.7 h | Least Square Means Ratio, AUClast [2, 8]: 89.66% | Least Square Means Ratio, Cmax [2, 8]: 81.00% | t1/2term (mean ± SD) ([2]; Arm 2: FDC02): 169.0 ± 24.5 h | Least Square Means Ratio, AUClast [2, 9]: 182.32% | Least Square Means Ratio, Cmax [2, 9]: 165.30% | t1/2term (mean ± SD) ([2]; Arm 3: FDC04): 176.0 ± 29.5 h | Least Square Means Ratio, AUClast [2, 10]: 180.14% | Least Square Means Ratio, Cmax [2, 10]: 163.29% | t1/2term (mean ± SD) ([2]; Arm 4: FDC01): 167.8 ± 22.4 h | Cmax [2, 11]: 0.186 ± 0.0604 µg/mL | AUC(0-t) [2, 7]: 6.32 ± 2.32 µg·h/mL | AUC(0-inf) [2, 7]: 7.08 ± 2.14 µg·h/mL | Tmax [2, 7]: 6 h | Cmax [2, 12]: 0.151 ± 0.054 µg/mL | AUC(0-t) ([2]; Arm 2: FDC02): 5.59 ± 1.89 µg·h/mL | AUC(0-inf) ([2]; Arm 2: FDC02): 7.04 ± 2.13 µg·h/mL | Tmax ([2]; Arm 2: FDC02): 6 h | Cmax [2, 13]: 0.301 ± 0.0805 µg/mL | AUC(0-t) ([2]; Arm 3: FDC04): 11.5 ± 4.39 µg·h/mL | AUC(0-inf) ([2]; Arm 3: FDC04): 14.8 ± 5.12 µg·h/mL | Tmax ([2]; Arm 3: FDC04): 6 h | Cmax [2, 14]: 0.298 ± 0.0817 µg/mL | AUC(0-t) ([2]; Arm 4: FDC01): 11.1 ± 3.35 µg·h/mL | AUC(0-inf) ([2]; Arm 4: FDC01): 15.7 ± 3.56 µg·h/mL | Tmax ([2]; Arm 4: FDC01): 6 h | OATP1B1 inhibition (in words) [3]: no inhibition | CYP inhibition potential (in words) [4]: does not inhibit | inhibition of any CYP ([4]; up to 10 μM): no inhibition | increase of exposure, effect of the three Compounds ([5]; Compound (III) + SMV + ODV co-administered vs given alone): 1.5 fold | AUC0-24 ([5]; both sexes, plasma, oral, Group 1, Day 20 (ODV + SMV), read-out: AUC0-24): 10.8 µg·h/mL | Cmax ([5]; both sexes, plasma, oral, Group 1, Day 20 (ODV + SMV), read-out: Cmax): 0.649 µg/mL | AUC0-24 ([5]; both sexes, plasma, oral, Group 1, Day 23 (SMV + Compound (III) + ODV), read-out: AUC0-24): 12.8 µg·h/mL | Cmax ([5]; both sexes, plasma, oral, Group 1, Day 23 (SMV + Compound (III) + ODV), read-out: Cmax): 0.744 µg/mL | AUC0-24 ([5]; both sexes, plasma, oral, Group 2, Day 10 (ODV alone), read-out: AUC0-24): 8.72 µg·h/mL | Cmax ([5]; both sexes, plasma, oral, Group 2, Day 10 (ODV alone), read-out: Cmax): 0.582 µg/mL | AUC0-24 ([5]; both sexes, plasma, oral, Group 2, Day 13 (ODV + Compound (III)), read-out: AUC0-24): 10.2 µg·h/mL | Cmax ([5]; both sexes, plasma, oral, Group 2, Day 13 (ODV + Compound (III)), read-out: Cmax): 0.669 µg/mL | AUC0-24 ([5]; both sexes, plasma, oral, Group 2, Day 20 (ODV + SMV), read-out: AUC0-24): 14 µg·h/mL | Cmax ([5]; both sexes, plasma, oral, Group 2, Day 20 (ODV + SMV), read-out: Cmax): 0.77 µg/mL | AUC0-24 ([5]; both sexes, plasma, oral, Group 2, Day 23 (ODV + Compound (III) + SMV), read-out: AUC0-24): 14.8 µg·h/mL | Cmax ([5]; both sexes, plasma, oral, Group 2, Day 23 (ODV + Compound (III) + SMV), read-out: Cmax): 0.78 µg/mL | effect of Compound (III) on exposure / bioavailability ([5]; co-administered with Compound (III)): no apparent effect; also recorded: does not alter | increase of exposure caused by SMV ([5]; co-administered with SMV vs without): 1.6 fold | BCRP inhibition (in words) [6]: no inhibition

COc1ccc2c(O[C@@H]3C[C@H]4C(=O)N[C@]5(C(=O)NS(=O)(=O)C6CC6)C[C@H]5/C=C\CCCCN(C)C(=O)[C@@H]4C3)cc(-c3nc(C(C)C)cs3)nc2c1C [SMV, Simeprevir, reference compound]
P-gp inhibition (in words) [1]: strong/moderate | t1/2term (mean ± SD) [2, 7]: 8.3 ± 1.8 h | Least Square Means Ratio, AUClast [2, 8]: 127.79% | Least Square Means Ratio, AUC∞ [2, 8]: 126.19% | Least Square Means Ratio, Cmax [2, 8]: 116.50% | t1/2term (mean ± SD) ([2]; Arm 2: FDC02): 8.7 ± 2.3 h | Least Square Means Ratio, AUClast [2, 9]: 133.85% | Least Square Means Ratio, AUC∞ [2, 9]: 132.28% | Least Square Means Ratio, Cmax [2, 9]: 115.24% | t1/2term (mean ± SD) ([2]; Arm 3: FDC04): 9.1 ± 1.6 h | Least Square Means Ratio, AUClast [2, 10]: 117.50% | Least Square Means Ratio, AUC∞ [2, 10]: 116.00% | Least Square Means Ratio, Cmax [2, 10]: 108.22% | t1/2term (mean ± SD) ([2]; Arm 4: FDC01): 8.5 ± 1.5 h | Cmax [2, 11]: 0.777 ± 0.225 µg/mL | AUC(0-t) [2, 7]: 9.42 ± 3.38 µg·h/mL | AUC(0-inf) [2, 7]: 9.92 ± 3.43 µg·h/mL | Tmax [2, 7]: 6 h | Cmax [2, 12]: 0.942 ± 0.431 µg/mL | AUC(0-t) ([2]; Arm 2: FDC02): 12.7 ± 6.26 µg·h/mL | AUC(0-inf) ([2]; Arm 2: FDC02): 13.2 ± 6.43 µg·h/mL | Tmax ([2]; Arm 2: FDC02): 6 h | Cmax [2, 13]: 0.906 ± 0.321 µg/mL | AUC(0-t) ([2]; Arm 3: FDC04): 12.9 ± 5.83 µg·h/mL | AUC(0-inf) ([2]; Arm 3: FDC04): 13.4 ± 6.02 µg·h/mL | Tmax ([2]; Arm 3: FDC04): 6 h | Cmax [2, 14]: 0.856 ± 0.318 µg/mL | AUC(0-t) ([2]; Arm 4: FDC01): 11.6 ± 6.29 µg·h/mL | AUC(0-inf) ([2]; Arm 4: FDC01): 12.1 ± 6.41 µg·h/mL | Tmax ([2]; Arm 4: FDC01): 6 h | OATP1B1 inhibition (in words) [3]: strong in vitro inhibition | IC50 ([3]; read-out: OATP1B1 inhibition IC50): 0.3 µM | CYP inhibition potential (in words) [4]: limited | AUC0-24 ([5]; both, in vivo): 41.258 µg·h/mL | Cmax ([5]; both, in vivo): 2.957 µg/mL
